Experimental data as given in US10335409B2 (priority 2012, dated 2019).

Experiments:
[1] = target: HCV NS3 protease domain genotype 1b (Hepatitis C virus genotype 1b (isolate Con1), UniProt Q9WMX2, E1202G); assay: Ki determination, NS3 protease genotype 1b (fluorogenic depsipeptide substrate); format: biochemical; conditions: 50 pM enzyme, NS4A peptide
[2] = target: HCV NS3 protease domain genotype 3a (Hepatitis C virus genotype 3a, UniProt Q81258); assay: Ki determination, NS3 protease genotype 3a (fluorogenic depsipeptide substrate); format: biochemical; conditions: 200 pM enzyme, NS4A peptide
HCV NS3 protease domain genotype 3a, sequence (Q81258 whole entry, looked up, the tested form may be a part): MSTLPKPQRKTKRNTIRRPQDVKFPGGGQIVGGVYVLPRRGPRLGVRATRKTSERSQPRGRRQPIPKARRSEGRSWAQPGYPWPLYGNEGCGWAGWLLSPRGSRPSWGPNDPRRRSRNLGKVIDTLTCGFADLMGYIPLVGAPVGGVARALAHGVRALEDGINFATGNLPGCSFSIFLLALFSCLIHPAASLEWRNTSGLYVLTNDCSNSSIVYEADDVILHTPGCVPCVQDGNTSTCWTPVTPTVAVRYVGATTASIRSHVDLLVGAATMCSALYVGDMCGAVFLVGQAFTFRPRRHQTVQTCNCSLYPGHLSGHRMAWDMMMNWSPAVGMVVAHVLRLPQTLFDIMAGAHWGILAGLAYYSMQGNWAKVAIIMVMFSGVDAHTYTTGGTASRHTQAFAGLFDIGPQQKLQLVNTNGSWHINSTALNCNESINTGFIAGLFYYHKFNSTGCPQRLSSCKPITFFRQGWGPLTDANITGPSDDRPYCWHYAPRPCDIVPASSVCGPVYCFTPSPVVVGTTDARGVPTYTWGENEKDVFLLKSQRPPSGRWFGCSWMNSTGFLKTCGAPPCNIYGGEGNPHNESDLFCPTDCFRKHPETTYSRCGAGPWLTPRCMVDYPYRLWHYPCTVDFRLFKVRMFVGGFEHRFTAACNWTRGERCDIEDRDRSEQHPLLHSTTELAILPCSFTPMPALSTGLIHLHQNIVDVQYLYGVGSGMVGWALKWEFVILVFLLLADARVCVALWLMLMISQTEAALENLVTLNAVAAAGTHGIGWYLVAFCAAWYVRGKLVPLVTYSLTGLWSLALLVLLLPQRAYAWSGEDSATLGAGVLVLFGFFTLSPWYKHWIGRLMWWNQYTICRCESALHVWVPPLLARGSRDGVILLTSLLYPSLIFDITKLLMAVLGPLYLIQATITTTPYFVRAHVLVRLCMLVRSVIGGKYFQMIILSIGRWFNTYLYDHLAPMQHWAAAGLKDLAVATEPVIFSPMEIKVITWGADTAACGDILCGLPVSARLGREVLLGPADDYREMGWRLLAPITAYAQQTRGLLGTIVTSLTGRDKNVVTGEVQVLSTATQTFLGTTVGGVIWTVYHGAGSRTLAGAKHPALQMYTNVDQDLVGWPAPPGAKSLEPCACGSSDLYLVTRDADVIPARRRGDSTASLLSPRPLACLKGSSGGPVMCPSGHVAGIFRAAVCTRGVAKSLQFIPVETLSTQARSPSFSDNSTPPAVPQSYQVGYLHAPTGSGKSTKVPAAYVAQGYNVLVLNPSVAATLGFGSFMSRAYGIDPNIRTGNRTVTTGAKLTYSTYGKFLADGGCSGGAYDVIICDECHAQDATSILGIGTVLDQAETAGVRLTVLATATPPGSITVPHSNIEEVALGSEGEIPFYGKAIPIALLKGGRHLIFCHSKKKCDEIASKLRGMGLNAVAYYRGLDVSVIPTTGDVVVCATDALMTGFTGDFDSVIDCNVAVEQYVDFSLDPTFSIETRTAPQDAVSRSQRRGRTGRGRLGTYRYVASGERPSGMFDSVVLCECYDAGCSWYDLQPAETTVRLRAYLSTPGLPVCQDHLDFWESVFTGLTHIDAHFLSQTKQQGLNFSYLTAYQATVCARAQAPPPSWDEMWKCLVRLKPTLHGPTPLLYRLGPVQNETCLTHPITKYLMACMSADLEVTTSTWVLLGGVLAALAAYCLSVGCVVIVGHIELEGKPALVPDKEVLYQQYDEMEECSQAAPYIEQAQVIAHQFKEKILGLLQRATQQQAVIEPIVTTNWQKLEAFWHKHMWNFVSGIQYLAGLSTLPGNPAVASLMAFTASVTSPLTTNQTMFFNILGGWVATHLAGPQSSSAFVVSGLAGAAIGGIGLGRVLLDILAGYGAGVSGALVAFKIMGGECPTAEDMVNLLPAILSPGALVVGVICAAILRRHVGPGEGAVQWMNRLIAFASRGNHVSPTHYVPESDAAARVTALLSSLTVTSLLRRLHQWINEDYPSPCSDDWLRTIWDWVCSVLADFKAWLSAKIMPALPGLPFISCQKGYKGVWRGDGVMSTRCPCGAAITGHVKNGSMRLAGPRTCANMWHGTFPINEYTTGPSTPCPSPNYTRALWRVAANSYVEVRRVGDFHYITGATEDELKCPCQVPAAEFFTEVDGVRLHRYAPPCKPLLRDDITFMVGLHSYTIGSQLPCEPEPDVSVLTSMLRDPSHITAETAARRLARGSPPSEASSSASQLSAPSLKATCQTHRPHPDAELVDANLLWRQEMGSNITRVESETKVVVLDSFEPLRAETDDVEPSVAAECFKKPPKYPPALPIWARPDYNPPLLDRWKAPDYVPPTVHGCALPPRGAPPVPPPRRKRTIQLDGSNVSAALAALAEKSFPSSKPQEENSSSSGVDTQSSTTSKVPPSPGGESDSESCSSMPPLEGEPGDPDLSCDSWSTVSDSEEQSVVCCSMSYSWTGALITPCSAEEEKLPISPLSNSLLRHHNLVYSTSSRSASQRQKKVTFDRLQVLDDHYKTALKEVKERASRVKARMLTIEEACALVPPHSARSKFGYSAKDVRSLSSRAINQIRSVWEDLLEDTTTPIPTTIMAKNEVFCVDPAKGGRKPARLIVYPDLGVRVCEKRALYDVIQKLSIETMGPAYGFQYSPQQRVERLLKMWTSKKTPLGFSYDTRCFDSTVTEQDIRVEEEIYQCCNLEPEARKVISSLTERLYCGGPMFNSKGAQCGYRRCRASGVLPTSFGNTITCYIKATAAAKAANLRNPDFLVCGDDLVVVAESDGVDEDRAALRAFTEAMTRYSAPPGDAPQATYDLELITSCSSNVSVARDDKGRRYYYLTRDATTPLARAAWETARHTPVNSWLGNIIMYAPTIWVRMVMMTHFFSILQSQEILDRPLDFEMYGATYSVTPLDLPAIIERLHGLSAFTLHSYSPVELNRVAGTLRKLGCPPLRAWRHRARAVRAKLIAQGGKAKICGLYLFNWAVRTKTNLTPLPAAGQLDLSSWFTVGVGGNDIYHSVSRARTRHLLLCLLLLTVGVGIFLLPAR
In short: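 The NS3 protease domain (aa 1-181) with 20 μM NS4A peptide was used at 50 pM with 4 μM substrate (1b) or at 200 pM with 2 μM substrate (3a). Inhibitors (100 nM-5 pM) were pre-incubated 1 h at room temperature in HEPES/glycerol/DTT buffer with 10% DMSO. Steady-state rates (90-120 min) gave Ki via the Morrison equation, corrected for active enzyme and [S]/Km.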

[3] = test system: genotype 1a (H77) stable HCV replicon in Huh-7-derived cells; assay: Stable subgenomic HCV replicon EC50, genotype 1a (Renilla luciferase); format: cell-based, hepatitis C virus; conditions: Hepatitis C virus, stable replicon genotype 1a, 72 h, read-out: EC50 1A RLUC
In short: (§1)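 Compounds, three-fold diluted, were applied to Huh-7-derived cells harbouring luciferase replicons (genotype 1a H77, 1b Con1, 2a JFH-1, 4a ED43, with strain-specific adaptive mutations). Seventy-two hours later, intracellular replication was gauged by Renilla luciferase activity and EC50 derived by regression.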

[4] = test system: genotype 1b (Con1) stable HCV replicon in Huh-7-derived cells; assay: Stable subgenomic HCV replicon EC50, genotype 1b (Renilla luciferase); format: cell-based, hepatitis C virus; conditions: Hepatitis C virus, stable replicon genotype 1b, 72 h, read-out: EC50 1B RLUC
In short: as §1

[5] = test system: genotype 2a (JFH-1) stable HCV replicon in Huh-7-derived cells; assay: Stable subgenomic HCV replicon EC50, genotype 2a (Renilla luciferase); format: cell-based, hepatitis C virus; conditions: Hepatitis C virus, stable replicon genotype 2a, 72 h, read-out: EC50 2A RLUC
In short: as §1

[6] = test system: genotype 3a (S52) stable HCV replicon in Huh-7-derived cells; assay: Stable subgenomic HCV replicon EC50, genotype 3a (Renilla luciferase); format: cell-based, hepatitis C virus; conditions: Hepatitis C virus, 72 h, read-out: EC50 3A RLUC
[7] = test system: genotype 4a (ED43) stable HCV replicon in Huh-7-derived cells; assay: Stable subgenomic HCV replicon EC50, genotype 4a (Renilla luciferase); format: cell-based, hepatitis C virus; conditions: Hepatitis C virus, 72 h, read-out: EC50 4A RLUC
In short: as §1

[8] = test system: genotype 3a (S52) wild type transient HCV replicon in Huh-7-derived cells; assay: Transient-transfected HCV replicon EC50, genotype 3a wild type; format: cell-based, hepatitis C virus; conditions: Hepatitis C virus; transient-transfected replicon genotype 3a wild type, 72 h; read-out: EC50 3A WT
[9] = test system: genotype 1a (H77) wild type transient HCV replicon in Huh-7-derived cells; assay: Transient-transfected HCV replicon EC50, genotype 1a wild type; format: cell-based, hepatitis C virus; conditions: Hepatitis C virus, 72 h, transient-transfected replicon genotype 1a wild type, read-out: EC50 1A WT
[10] = test system: genotype 1a NS3/4a protease inhibitor resistant variant R155K transient HCV replicon in Huh-7-derived cells; assay: Transient-transfected HCV replicon EC50, genotype 1a R155K; format: cell-based, hepatitis C virus; conditions: Hepatitis C virus, 72 h, read-out: EC50 1A R155K, transient-transfected replicon genotype 1a R155K resistant variant, 72 h
[11] = test system: genotype 1b (Con1) wild type transient HCV replicon in Huh-7-derived cells; assay: Transient-transfected HCV replicon EC50, genotype 1b wild type; format: cell-based, hepatitis C virus; conditions: Hepatitis C virus, 72 h, transient-transfected replicon genotype 1b wild type, read-out: EC50 1B WT
[12] = test system: genotype 1b NS3/4a protease inhibitor resistant variant D168A transient HCV replicon in Huh-7-derived cells; assay: Transient-transfected HCV replicon EC50, genotype 1b D168A; format: cell-based, hepatitis C virus; conditions: Hepatitis C virus, 72 h, read-out: EC50 1B D168A, transient-transfected replicon genotype 1b D168A resistant variant, 72 h

HCV NS3 protease domain genotype 1b, sequence (Q9WMX2 1027-1208 E1202G): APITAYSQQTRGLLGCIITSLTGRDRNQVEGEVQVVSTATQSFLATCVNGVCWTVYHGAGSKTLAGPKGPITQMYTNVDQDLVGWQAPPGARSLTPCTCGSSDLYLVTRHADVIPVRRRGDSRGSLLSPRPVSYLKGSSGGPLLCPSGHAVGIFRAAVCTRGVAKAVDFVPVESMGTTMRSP

C[C@@H]1[C@@H]2CN(C(=O)[C@H](C(C)(C)C)NC(=O)O[C@@H]3C[C@@H]4C[C@@H]4[C@H]3CCCCCc3nc4ccc(Cl)cc4nc3O2)[C@@H]1C(=O)N[C@]1(C(=O)NS(=O)(=O)C2CC2)C[C@H]1C(F)F [Example 79, (1aS,2aR,6S,9S,10S,11R,23aR,23bS)-6-tert-butyl-15-chloro-N-[(1R,2R)-1-[(cyclopropylsulfonyl)carbamoyl]-2-(difluoromethyl)cyclopropyl]-10-methyl-4,7-dioxo-1a,2,2a,4,5,6,7,10,11,19,20,21,22,23,23a,23b-hexadecahydro-1H,9H-8,11-methanocyclopropa[4′,5′]cyclopenta[1′,2′:18,19][1,10,3,6]dioxadiazacyclononadecino[11,12-b]quinoxaline-9-carboxamide]
Ki [1]: 0.06 nM
Ki [2]: 0.06 nM
EC50 [3]: 7 nM
EC50 [4]: 5.8 nM
EC50 [5]: 4.1 nM
EC50 [6]: 71 nM
EC50 [7]: 5.6 nM
EC50 [8]: 9.2 nM
EC50 [9]: 6.1 nM
EC50 [10]: 7.1 nM
EC50 [11]: 3 nM
EC50 [12]: 11 nM

CC[C@@H]1[C@@H]2CN(C(=O)[C@H](C(C)(C)C)NC(=O)O[C@@H]3C[C@H]3CCCCC(F)(F)c3nc4ccc(OC(F)(F)F)cc4nc3O2)[C@@H]1C(=O)N[C@]1(C(=O)NS(=O)(=O)C2(C)CC2)C[C@H]1C(F)F [Example 83, (1aR,5S,8S,9S,10R,22aR)-5-tert-butyl-N-[(1R,2R)-2-(difluoromethyl)-1-{[(1-methylcyclopropyl)sulfonyl]carbamoyl}cyclopropyl]-9-ethyl-18,18-difluoro-3,6-dioxo-14-(trifluoromethoxy)-1,1a,3,4,5,6,9,10,18,19,20,21,22,22a-tetradecahydro-8H-7,10-methanocyclopropa[18,19][1,10,3,6]dioxadiazacyclononadecino[11,12-b]quinoxaline-8-carboxamide]
Ki [1]: 0.09 nM
Ki [2]: 0.48 nM
EC50 [3]: 62 nM
EC50 [4]: 58 nM
EC50 [5]: 19 nM
EC50 [6]: 1220 nM
EC50 [7]: 42 nM
EC50 [8]: 300 nM
EC50 [9]: 62 nM
EC50 [10]: 133 nM
EC50 [11]: 27 nM
EC50 [12]: 202 nM

CC[C@@H]1[C@@H]2CN(C(=O)[C@H](C(C)(C)C)NC(=O)O[C@@H]3C[C@@H]4C[C@@H]4[C@H]3CCCCCc3nc4ccc(OC)cc4nc3O2)[C@@H]1C(=O)N[C@]1(C(=O)NS(=O)(=O)C2CC2)C[C@H]1C(F)F [Example 70, (1aS,2aR,6S,9S,10S,11R,23aR,23bS)-6-tert-butyl-N-[(1R,2R)-1-[(cyclopropylsulfonyl)carbamoyl]-2-(difluoromethyl)cyclopropyl]-10-ethyl-15-methoxy-4,7-dioxo-1a,2,2a,4,5,6,7,10,11,19,20,21,22,23,23a,23b-hexadecahydro-1H,9H-8,11-methanocyclopropa[4′,5′]cyclopenta[1′,2′:18,19][1,10,3,6]dioxadiazacyclononadecino[11,12-b]quinoxaline-9-carboxamide]
Ki [1]: 0.05 nM
Ki [2]: 0.05 nM
EC50 [3]: 8.4 nM
EC50 [4]: 8.5 nM
EC50 [5]: 15 nM
EC50 [6]: 41 nM
EC50 [7]: 6.4 nM
EC50 [8]: 17 nM
EC50 [9]: 7.7 nM
EC50 [10]: 5.4 nM
EC50 [11]: 6.1 nM
EC50 [12]: 7.3 nM
